Reference: US20250136577A1, “HETEROCYCLIC DERIVATIVES AS MALT1 INHIBITORS” (C4X Discovery Limited, priority 2022, published 2025)

What was measured:
[1] = test system: IL-2 release from stimulated Jurkat cells; test: Human IL-2 Release Phenotypic Assay (Assay 3); assay type: cell-based; conditions: Homo sapiens, Jurkat, 48 h, Jurkat cells (clone E6-1), 200 ng/ml PMA + 300 ng/ml ionomycin, IL-2 in supernatant by ELISA
Experimental: Human IL-2 Release Phenotypic Assay (Assay 3)
This assay measured the inhibition by MALT1 inhibitors of the IL-2 release from stimulated Jurkat cells, a human immortalized T lymphocyte cell line. IL-2 production from Jurkat cells is regulated by activation of NFκB signalling, which is in turn regulated by MALT1 protease activity.
Jurkat cells (clone E6-1, ATCC) were cultured in RPMI1640 supplemented with 10% (v/v) FBS and 1% (v/v) penicillin/streptomycin (100× liquid stocks). Cells were seeded in 96-well white tissue culture-treated plates (Perkin Elmer) at 50 000 cells/well and incubated overnight at 37° C., 5% CO2. Test compounds in DMSO at half-log dilutions were added to the cells and incubated for 30 mins. Final DMSO concentration was 0.5%. Cells were then stimulated with 200 ng/ml PMA+300 ng/ml ionomycin and incubated for 48 hours. IL-2 present in the supernatant was then measured by ELISA according to the kit instructions (ELISA MAX Deluxe Set Human IL-2, BioLegend). % inhibition was calculated for each well, using 30 μM of the commercially available MALT1 inhibitor, MLT-748, for 100% inhibition controls and no compound for 0% inhibition controls. IC50 values were calculated using GraphPad Prism using 4-parameter non-linear regression curve fit.

FL hMALT1 enzyme = FL hMALT1 enzyme (Homo sapiens (Human), UniProt Q9UDY8); test: MALT1 Protease Assay 2 (Assay 2), higher sensitivity, cleavage of fluorogenic tetrapeptide substrate; assay type: biochemical; conditions: FL hMALT1 1-10 nM, Ac-LVSR-AMC 100 μM, 0.7 M sodium citrate, 30 min preincubation, 60 min read
Sequence of FL hMALT1 enzyme (Q9UDY8 whole entry): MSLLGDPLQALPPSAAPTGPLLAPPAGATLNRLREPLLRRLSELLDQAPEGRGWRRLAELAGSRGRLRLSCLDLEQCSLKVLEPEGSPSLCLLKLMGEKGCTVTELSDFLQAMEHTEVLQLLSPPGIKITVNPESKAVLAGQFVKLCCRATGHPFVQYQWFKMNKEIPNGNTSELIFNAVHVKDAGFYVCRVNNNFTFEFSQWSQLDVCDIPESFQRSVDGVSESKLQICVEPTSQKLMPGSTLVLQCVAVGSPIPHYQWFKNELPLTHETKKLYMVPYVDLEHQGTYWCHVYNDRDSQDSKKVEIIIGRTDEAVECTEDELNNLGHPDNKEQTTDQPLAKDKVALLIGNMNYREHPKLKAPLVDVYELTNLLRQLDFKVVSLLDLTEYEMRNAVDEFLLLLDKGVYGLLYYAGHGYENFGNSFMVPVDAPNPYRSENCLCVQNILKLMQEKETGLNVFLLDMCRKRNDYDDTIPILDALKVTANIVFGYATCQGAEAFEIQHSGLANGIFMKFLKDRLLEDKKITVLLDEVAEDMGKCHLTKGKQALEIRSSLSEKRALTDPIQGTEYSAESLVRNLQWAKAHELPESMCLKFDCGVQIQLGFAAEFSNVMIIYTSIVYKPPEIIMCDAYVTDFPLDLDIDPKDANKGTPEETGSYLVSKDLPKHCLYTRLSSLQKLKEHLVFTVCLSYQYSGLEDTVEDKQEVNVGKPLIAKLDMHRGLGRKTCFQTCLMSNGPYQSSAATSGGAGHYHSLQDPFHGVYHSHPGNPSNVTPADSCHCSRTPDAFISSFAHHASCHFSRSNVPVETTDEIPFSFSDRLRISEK
In short: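 After 30 min room-temperature preincubation with compound (1% DMSO), enzyme (1-10 nM) cleaved 100 μM Ac-LVSR-AMC in pH 7.0 HEPES buffer containing 0.7 M sodium citrate, CHAPS and TCEP. Fluorescence (ex 360/em 460 nm) signal was taken as 60 min minus time 0. IC50 came from 4-parameter fits of % inhibition.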

[2] = target: MALT1-GS-Ub (6-His-hMALT-1 residues 339-715 fused to ubiquitin) (Homo sapiens (Human), UniProt Q9UDY8); test: MALT1 Protease Assay 1 (Assay 1), cleavage of fluorogenic tetrapeptide substrate; assay type: biochemical; conditions: MALT1-GS-Ub 300-600 nM, Ac-LVSR-AMC 100 μM, 30 min preincubation, 60 min read
Sequence of MALT1-GS-Ub (6-His-hMALT-1 residues 339-715 fused to ubiquitin) (Q9UDY8 other isoform, or with tags, fused parts or gaps): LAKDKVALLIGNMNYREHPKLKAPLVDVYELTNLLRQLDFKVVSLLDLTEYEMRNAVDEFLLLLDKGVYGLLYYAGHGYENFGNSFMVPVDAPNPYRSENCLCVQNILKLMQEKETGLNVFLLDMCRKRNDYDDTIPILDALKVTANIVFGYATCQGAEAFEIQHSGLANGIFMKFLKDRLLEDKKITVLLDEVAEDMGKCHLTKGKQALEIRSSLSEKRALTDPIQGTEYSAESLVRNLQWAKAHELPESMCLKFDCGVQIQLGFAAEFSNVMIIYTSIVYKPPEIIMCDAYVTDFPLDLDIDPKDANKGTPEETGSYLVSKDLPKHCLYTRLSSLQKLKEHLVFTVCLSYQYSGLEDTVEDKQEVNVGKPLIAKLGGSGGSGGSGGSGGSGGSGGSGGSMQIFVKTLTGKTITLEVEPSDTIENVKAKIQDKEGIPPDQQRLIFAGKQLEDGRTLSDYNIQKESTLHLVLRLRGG
In short: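 E. coli-expressed MALT1-GS-Ub (300–600 nM) preincubated 30 min at room temperature with compound (1% DMSO final), then Ac-LVSR-AMC (100 μM) added in 50 mM HEPES pH 7.0, 25 mM KCl, 0.1% CHAPS, 1 mM TCEP. Fluorescence (ex 360/em 460 nm) change over 60 min gave % inhibition versus no-enzyme and no-compound controls; IC50 from 4-parameter fit.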

IC50 [1] [nM]	IC50 (FL hMALT1 enzyme) [nM]	IC50 [2] [nM]	SMILES
1100	150	730	CC1(C)CN(C(=O)Nc2cnc(-n3nccn3)c(Cl)c2)c2cncc(Br)c2O1 [Example 19, 8-Bromo-N-(5-chloro-6-(2H-1,2,3-triazol-2-yl)pyridin-3-yl)-2,2-dimethyl-2,3-dihydro-4H-pyrido[4,3-b][1,4]oxazine-4-carboxamide]
1200	120	1800	CC1(C)CN(C(=O)Nc2cnc(-n3nccn3)c(Cl)c2)c2cncc(Cl)c2O1 [Example 32, 8-Chloro-N-(5-chloro-6-(2H-1,2,3-triazol-2-yl)pyridin-3-yl)-2,2-dimethyl-2,3-dihydro-4H-pyrido[4,3-b][1,4]oxazine-4-carboxamide]
